Calls of active or inactive are those of the source. The rule behind the calls is not given here.
Tests used:
[1] = target: Photosystem II protein D1 (Spinacia oleracea) (UniProt P69560); assay: Inhibition of Spinacia oleracea (spinach) photosystem II assessed as light-induced re-reduction of Cyt-f at 100 uM added prior to illumination by dual wavelength spectrophotometer analysis
[2] = target: T1, Photosystem I iron-sulfur center (Spinacia oleracea) (UniProt P10098); assay: Inhibition of Spinacia oleracea (spinach) photosystem I assessed as light-induced oxidation of Cyt-f at 100 uM added prior to illumination by dual wavelength spectrophotometer analysis
T1 sequence (whole entry): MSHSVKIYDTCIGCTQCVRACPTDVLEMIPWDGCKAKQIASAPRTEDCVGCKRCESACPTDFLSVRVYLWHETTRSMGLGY

[3] = target: T2, Photosystem II protein D1 (Spinacia oleracea, UniProt P69560); assay: Inhibition of Spinacia oleracea (spinach) photosystem II assessed as electron flow from H20 to PDOX after 1 hr by polarographically
[4] = target: Photosystem II protein D1 (Spinacia oleracea) (UniProt P69560); assay: Inhibition of Spinacia oleracea (spinach) photosystem II assessed as electron flow from H20 to PDOX at 300 uM after 1 hr by polarographically
[5] = target: T1, Photosystem I iron-sulfur center (Spinacia oleracea); assay: Inhibition of Spinacia oleracea (spinach) photosystem I assessed as electron flow from ascorbate/DAD to methylviologen at >200 uM after 1 hr by polarographically
[6] = Inhibition of Spinacia oleracea (spinach) chloroplast electron transport chain assessed as electron flow from water to ferricyanide by polarographically
[7] = test system: Spinacia oleracea; assay: Inhibition of Spinacia oleracea (spinach) chloroplast electron transport chain-mediated rate of oxygen evolution per mg of chloroplast at 125 uM preincubated with DTT in dark condition for 5 min presence of 0.31 mM DTT
[8] = test system: Spinacia oleracea; assay: Inhibition of Spinacia oleracea (spinach) chloroplast electron transport chain-mediated rate of oxygen evolution per mg of chloroplast at 125 uM
[9] = test system: Spinacia oleracea; assay: Inhibition of Spinacia oleracea (spinach) chloroplast electron transport chain-mediated rate of oxygen evolution per mg of chloroplast at 125 uM in presence of 0.31 mM DTT
[10] = test system: Spinacia oleracea; assay: Inhibition of Spinacia oleracea (spinach) chloroplast electron transport chain-mediated rate of oxygen evolution per mg of chloroplast at 62.5 uM
[11] = test system: Spinacia oleracea; assay: Inhibition of Spinacia oleracea (spinach) chloroplast electron transport chain-mediated rate of oxygen evolution per mg of chloroplast at 62.5 uM in presence of 0.31 mM DTT
[12] = test system: Spinacia oleracea; assay: Inhibition of Spinacia oleracea (spinach) chloroplast electron transport chain-mediated sulfhydryl-induced ATP-Pi exchange assessed as inorganic phosphate release at 200 uM treated during activation stage
[13] = test system: Spinacia oleracea; assay: Inhibition of Spinacia oleracea (spinach) chloroplast electron transport chain-mediated sulfhydryl-induced ATP-Pi exchange assessed as inorganic phosphate release at 200 uM treated during incubation stage
[14] = Inhibition of Spinacia oleracea (spinach) chloroplast electron transport chain-mediated Mg2+-ATPase activity assessed as inorganic phosphate release
[15] = test system: Spinacia oleracea; assay: Inhibition of Spinacia oleracea (spinach) chloroplast electron transport chain-mediated light-induced ATP-Pi exchange assessed as inorganic phosphate release at 200 uM treated during incubation stage
[16] = test system: Spinacia oleracea; assay: Inhibition of Spinacia oleracea (spinach) chloroplast electron transport chain-mediated light-induced ATP-Pi exchange assessed as inorganic phosphate release at 200 uM treated during activation stage
[17] = test system: Spinacia oleracea; assay: Inhibition of Spinacia oleracea (spinach) chloroplast electron transport chain-mediated sulfhydryl-induced ATP-Pi exchange assessed as inorganic phosphate release at 200 uM
[18] = test system: Spinacia oleracea; assay: Inhibition of Spinacia oleracea (spinach) chloroplast electron transport chain-mediated light-induced ATP-Pi exchange assessed as inorganic phosphate release at 200 uM
[19] = Inhibition of Spinacia oleracea (spinach) chloroplast electron transport chain-mediated sulfhydryl-induced ATP-Pi exchange assessed as inorganic phosphate release
[20] = Inhibition of Spinacia oleracea (spinach) chloroplast electron transport chain-mediated light-induced ATP-Pi exchange assessed as inorganic phosphate release
[21] = test system: Spinacia oleracea; assay: Inhibition of Spinacia oleracea (spinach) chloroplast electron transport chain-mediated DAD-induced cyclic phosphorylation at 200 uM by polarographically
[22] = test system: Spinacia oleracea; assay: Inhibition of Spinacia oleracea (spinach) chloroplast electron transport chain-mediated DAD-induced cyclic phosphorylation at 100 uM by polarographically
[23] = test system: Spinacia oleracea; assay: Inhibition of Spinacia oleracea (spinach) chloroplast electron transport chain-mediated DAD-induced cyclic phosphorylation at 50 uM by polarographically
[24] = test system: Spinacia oleracea; assay: Inhibition of Spinacia oleracea (spinach) chloroplast electron transport chain-mediated DAD-induced cyclic phosphorylation at 25 uM by polarographically
[25] = test system: Spinacia oleracea; assay: Inhibition of Spinacia oleracea (spinach) chloroplast electron transport chain-mediated DAD-induced cyclic phosphorylation at 10 uM by polarographically
[26] = test system: Spinacia oleracea; assay: Inhibition of Spinacia oleracea (spinach) chloroplast electron transport chain-mediated PMS-induced cyclic phosphorylation at 200 uM […]
[27] = test system: Spinacia oleracea; assay: Inhibition of Spinacia oleracea (spinach) chloroplast electron transport chain-mediated PMS-induced cyclic phosphorylation at 100 uM by polarographically
[28] = test system: Spinacia oleracea; assay: Inhibition of Spinacia oleracea (spinach) chloroplast electron transport chain-mediated PMS-induced cyclic phosphorylation at 50 uM […]
[29] = test system: Spinacia oleracea; assay: Inhibition of Spinacia oleracea (spinach) chloroplast electron transport chain-mediated PMS-induced cyclic phosphorylation at 25 uM […]
[30] = test system: Spinacia oleracea; assay: Inhibition of Spinacia oleracea (spinach) chloroplast electron transport chain-mediated PMS-induced cyclic phosphorylation at 10 uM by polarographically
[31] = Inhibition of Spinacia oleracea (spinach) chloroplast electron transport chain-mediated PMS-induced cyclic phosphorylation […]
[32] = target: T2, Photosystem II protein D1; assay: Inhibition of Spinacia oleracea (spinach) photosystem II mediated noncyclic photophosphorylation assessed as 32P-orthophosphate incorporation into ATP […]
[33] = Inhibition of Spinacia oleracea (spinach) chloroplast electron transport chain-mediated noncyclic photophosphorylation assessed as 32P-orthophosphate incorporation into ATP […]
[34] = target: Photosystem II protein D1 (Spinacia oleracea) (UniProt P69560); assay: Inhibition of Spinacia oleracea (spinach) photosystem II assessed as light-induced re-reduction of Cyt-f at 200 uM added prior to illumination by dual wavelength spectrophotometer analysis
[35] = target: T1, Photosystem I iron-sulfur center (Spinacia oleracea); assay: Inhibition of Spinacia oleracea (spinach) photosystem I assessed as light-induced oxidation of Cyt-f at 200 uM added prior to illumination by dual wavelength spectrophotometer analysis
[36] = test system: Spinacia oleracea; assay: Inhibition of Spinacia oleracea (spinach) chloroplast electron transport chain assessed as residual activity of noncyclic electron flow using methylviologen as acceptor up to 300 uM by polarographically relative to control
[37] = Inhibition of Spinacia oleracea (spinach) chloroplast electron transport chain-mediated noncyclic electron flow using methylviologen as acceptor by polarographically
[38] = test system: Spinacia oleracea; assay: Inhibition of Spinacia oleracea (spinach) chloroplast electron transport chain assessed as residual electron flow from water to ferricyanide up to 300 uM by polarographically relative to control
[39] = test system: Spinacia oleracea; assay: Inhibition of Spinacia oleracea (spinach) chloroplast electron transport chain-mediated rate of oxygen evolution per mg of chloroplast at 62.5 uM preincubated with DTT in dark condition for 5 min presence of 0.31 mM DTT
[40] = test system: Spinacia oleracea; assay: Inhibition of Spinacia oleracea (spinach) chloroplast electron transport chain-mediated DAD-induced cyclic phosphorylation up to 200 uM by polarographically in presence of ascorbate in red light
[41] = test system: Spinacia oleracea; assay: Inhibition of Spinacia oleracea (spinach) chloroplast electron transport chain-mediated DAD-induced cyclic phosphorylation up to 200 uM by polarographically in absence of DCMU in red light
[42] = test system: Spinacia oleracea; assay: Inhibition of Spinacia oleracea (spinach) chloroplast electron transport chain-mediated DAD-induced cyclic phosphorylation up to 200 uM by polarographically in absence of DCMU in white light
[43] = target: Photosystem II protein D1 (Spinacia oleracea) (UniProt P69560); assay: Inhibition of Spinacia oleracea (spinach) photosystem II mediated noncyclic photophosphorylation assessed as 32P-orthophosphate incorporation into ATP up to 300 uM by polarographically
[44] = target: T1, Photosystem I iron-sulfur center (Spinacia oleracea); assay: Inhibition of Spinacia oleracea (spinach) photosystem I mediated noncyclic photophosphorylation assessed as 32P-orthophosphate incorporation into ATP up to 300 uM […]

Compound | inhibition [5] | IC50 [6] | Activity [10] | Activity [11] | inhibition [12] | inhibition [13] | IC50 [14] | inhibition [15] | inhibition [16] | inhibition [17] | inhibition [18] | IC50 [19] | IC50 [20] | inhibition [21] | inhibition [22] | inhibition [23] | inhibition [24] | inhibition [25] | inhibition [26] | inhibition [27] | also measured
CC(C)N(C(=O)SC/C(Cl)=C/Cl)C(C)C [Diallate] | inactive | 20 µM | 105 µmol/h | 97 µmol/h | Active | Active | 65 µM | Active | Active | Active | Active | 20 µM | 20 µM | 32% | 20% | 48% | 32% | 8% | 66% | 52% | inhibition [1]: Active; inhibition [2]: inactive; IC50 [3]: 75 µM; inhibition [4]: Active; Activity [7]: 30 µmol/h; Activity [8]: 40 µmol/h; Activity [9]: 30 µmol/h; inhibition [28]: 54%; inhibition [29]: 25%; inhibition [30]: 8%; IC50 [31]: 50 µM; IC50 [32]: 100 µM; IC50 [33]: 25 µM
CCCN(CCC)c1c([N+](=O)[O-])cc(C(F)(F)F)cc1[N+](=O)[O-] [TRIFLURALIN] | inactive | 10 µM | 62 µmol/h | 64 µmol/h | Active | Active | 90 µM | Active | Active | Active | Active | 20 µM | 20 µM | 6% | 17% | 28% | 24% | 6% | 20% | 16% | inhibition [34]: Active; inhibition [35]: inactive; Imax [4]: 50%; Activity [36]: 10%; IC50 [37]: 10 µM; Activity [38]: 10%; Activity [39]: 60 µmol/h; inhibition [40]: Active; inhibition [41]: Active; inhibition [42]: Active; inhibition [28]: 18%; inhibition [29]: 16%; inhibition [30]: 4%; inhibition [43]: inactive; inhibition [44]: inactive; IC50 [33]: 50 µM

From ChEMBL document CHEMBL3046870, “Inhibition of chloroplast electron transport reactions by trifluralin and diallate” (Plant Physiol, 1977)
